Reference: US9029367B2, “BACE inhibitors” (Eli Lilly and Company, priority 2013, dated 2015)
Counter-ions that a name gives are not always drawn. Like-named read-outs stand apart in the source and are kept apart here.

Columns and labels:
human BACE1 (1-460):Fc = human BACE1 (1-460):Fc (Homo sapiens (Human), UniProt P56817); test: BACE1 FRET Assay; type: biochemical; conditions: purified recombinant huBACE1:Fc, FRET substrate, pH 4.6; Mean ± SEM
Description: For in vitro enzymatic and cellular assays, test compounds are prepared in DMSO to make up a 10 mM stock solution. The stock solution is serially diluted in DMSO to obtain a ten-point dilution curve with final compound concentrations ranging from 10 μM to 0.05 nM in a 96-well round-bottom plate before conducting the in vitro enzymatic and whole cell assays.
Human BACE1 (accession number: AF190725) is cloned from total brain cDNA by RT-PCR. The nucleotide sequences corresponding to amino acid sequences #1 to 460 are inserted into the cDNA encoding human IgG1 (Fc) polypeptide (Vassar et al., Science, 286, 735-742 (1999)). This fusion protein of BACE1 (1-460) and human Fc, named huBACE1:Fc, is constructed into the pJB02 vector. Human BACE1 (1-460):Fc (huBACE1:Fc) is transiently expressed in HEK293 cells. 250 μg cDNA of each construct is mixed with Fugene 6 and added to 1 liter HEK293 cells. Four days after the transfection, conditioned media are harvested for purification. huBACE1:Fc is purified by Protein A chromatography. The enzyme is stored at −80° C. in small aliquots. (See Yang, et. al., J. Neurochemistry, 91(6) 1249-59 (2004)
Serial dilutions of test compounds are prepared as described above. Compounds are further diluted 20× in KH2PO4 buffer. Ten μL of each dilution is added to each well on row A to H of a corresponding low protein binding black plate containing the reaction mixture (25 μL of 50 mM KH2PO4, pH 4.6, 1 mM TRITON® X-100, 1 mg/mL Bovine Serum Albumin, and 15 μM of FRET substrate) (See Yang, et. al., J. Neurochemistry, 91(6) 1249-59 (2004)). The content is mixed well on a plate shaker for 10 minutes. Fifteen μL of two hundred pM human BACE1 (1-460):Fc (See Vasser, et al., Science, 286, 735-741 (1999)) in the KH2PO4 buffer is added to the plate containing substrate and test compounds to initiate the reaction. The RFU of the mixture at time 0 is recorded at excitation wavelength 355 nm and emission wavelength 460 nm, after brief mixing on a plate shaker. The reaction plate is covered with aluminum foil and kept in a dark humidified oven at room temperature for 16 to 24 h. The RFU at the end of incubation is recorded with the same excitation and emission settings used at time 0. The difference of the RFU at time 0 and the end of incubation is representative of the activity of BACE1 under the compound treatment. RFU differences are plotted versus inhibitor concentration and a curve is fitted with a four-parameter logistic equation to obtain the IC50 values. (May, et al., Journal of Neuroscience, 31, 16507-16516 (2011)).

[1] = test system: Abeta released by primary cortical neurons from PDAPP transgenic embryonic mice; test: PDAPP Primary Neuronal Assay (Abeta 1-40 and 1-42 sandwich ELISAs); type: cell-based; conditions: Mus musculus, Primary cortical neuron, 24 h incubation
Description: For in vitro enzymatic and cellular assays, test compounds are prepared in DMSO to make up a 10 mM stock solution. […] A confirmatory whole cell assay is also run in primary neuronal cultures generated from PDAPP transgenic embryonic mice (May, et al., Journal of Neuroscience, 31, 16507-16516 (2011)). Primary cortical neurons are prepared from Embryonic Day 16 PDAPP embryos and cultured in 96 well plates (15×10^4 cells/well in DMEM/F12 (1:1) plus 10% FBS). After 2 days in vitro, culture media is replaced with serum free DMEM/F12 (1:1) containing B27 supplement and 2 μM (final) of Ara-C (Sigma, C1768). At day 5 in vitro, neurons are incubated at 37° C. for 24 h in the presence/absence of inhibitors (diluted in DMSO) at the desired concentration. […] Natl. Acad. Sci. USA 94, 1550-1555 (1997)). The concentration of Abeta released in the conditioned media following the compound treatment corresponds to the activity of BACE1 under such conditions.

[2] = test system: Abeta 1-x peptide levels in brain of young female PDAPP mice; test: In vivo Inhibition of Beta-Secretase (brain Abeta 1-x in PDAPP mice); design: species or system mouse; conditions: three hours after dosing, compared to vehicle-treated mice
From the text: Several animal models, including mouse, guinea pig, dog, and monkey, may be used to screen for inhibition of beta-secretase activity in vivo following compound treatment Animals used in this invention can be wild type, transgenic, or gene knockout animals. […] One to twenty-four hours following the administration of compound, animals are sacrificed, and brains are removed for analysis of Abeta 1-x. “Abeta 1-x” as used herein refers to the sum of Abeta species that begin with residue 1 and end with a C-terminus greater than residue 28. This detects the majority of Abeta species and is often called “total Abeta”. Total Abeta peptides (Abeta 1-x) levels are measured by a sandwich ELISA, using monoclonal 266 as a capture antibody and biotinylated 3D6 as reporting antibody. (See May, et al., Journal of Neuroscience, 31, 16507-16516 (2011)).
For acute studies, compound or appropriate vehicle is administered and animals are sacrificed at about 3 hours after dosing. Brain tissue, is obtained from selected animals and analyzed for the presence of Abeta 1-x. After chronic dosing brain tissues of older APP transgenic animals may also be analyzed for the amount of beta-amyloid plaques following compound treatment.

[3] = Abeta 1-40, Mean ± SEM, read-out: PDAPP Neuron A-beta (1-40) ELISA IC50
[4] = Abeta 1-42, Mean ± SEM, read-out: PDAPP Neuron A-beta (1-42) ELISA IC50

Chain of human BACE1 (1-460):Fc (P56817 22-460): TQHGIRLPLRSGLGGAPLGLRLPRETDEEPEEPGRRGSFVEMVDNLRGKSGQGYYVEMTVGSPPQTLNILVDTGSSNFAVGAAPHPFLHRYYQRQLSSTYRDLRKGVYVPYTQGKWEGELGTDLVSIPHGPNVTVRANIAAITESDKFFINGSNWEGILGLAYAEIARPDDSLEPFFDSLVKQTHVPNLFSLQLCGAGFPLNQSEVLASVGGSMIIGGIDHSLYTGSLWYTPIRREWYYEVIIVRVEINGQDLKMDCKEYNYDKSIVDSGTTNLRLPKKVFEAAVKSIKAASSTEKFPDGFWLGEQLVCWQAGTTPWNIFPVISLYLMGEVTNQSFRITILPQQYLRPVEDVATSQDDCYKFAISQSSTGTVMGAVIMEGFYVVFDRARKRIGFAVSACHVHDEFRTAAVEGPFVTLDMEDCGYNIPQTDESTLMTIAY

Row | IC50 (human BACE1 (1-460):Fc) [nM] | Compound | IC50 [1, 3] [nM] | IC50 [1, 4] [nM] | Abeta 1-x peptide levels reduced in brain hippocampus ([2]; 10 mg/kg oral dose) | Abeta 1-x peptide levels reduced in brain cortex ([2]; 10 mg/kg oral dose) | Abeta 1-x peptide levels reduced in brain cortex ([2]; 30 mg/kg oral dose) | Abeta 1-x peptide levels reduced in brain hippocampus ([2]; 30 mg/kg oral dose)
1 | 45 | Cl.N#Cc1ccc(C(=O)Nc2ccc(F)c([C@]34COC[C@@]3(F)COC(N)=N4)c2)nc1 [Example 34, N-[3-[(4aR,7aS)-2-Amino-4a-fluoro-5,7-dihydro-4H-furo[3,4-d][1,3]oxazin-7a-yl]-4-fluoro-phenyl]-5-cyano-pyridine-2-carboxamide hydrochloride] | 49.9 | 36.5 | approximately 26% |  |  | 
2 |  | COc1cnc(C(=O)Nc2ccc(F)c([C@]34COC[C@@]3(F)CSC(N)=N4)c2)cn1.Cl [Example 2, N-[3-[(4aR,7aS)-2-Amino-4a-fluoro-5,7-dihydro-4H-furo[3,4-d][1,3]thiazin-7a-yl]-4-fluoro-phenyl]-5-methoxy-pyrazine-2-carboxamide hydrochloride] | 29.5 | 21.9 | approximately 40% | approximately 45% | approximately 54% | approximately 52%
3 | 25.7 | NC1=N[C@@]2(c3cc(NC(=O)c4cnc(OCC5(F)CC5)cn4)ccc3F)COC[C@@]2(F)CO1 [Example 57, N-[3-[(4aR,7aS)-2-Amino-4a-fluoro-5,7-dihydro-4H-furo[3,4-d][1,3]oxazin-7a-yl]-4-fluoro-phenyl]-5-[(1-fluorocyclopropyl)methoxy]pyrazine-2-carboxamide hydrochloride] | 186 | 182 |  |  |  | 
4 | 6.66 | Cl.N#Cc1ccc(C(=O)Nc2ccc(F)c([C@]34COC[C@@]3(F)CSC(N)=N4)c2)nc1 [Example 3, N-[3-[(4aR,7aS)-2-Amino-4a-fluoro-5,7-dihydro-4H-furo[3,4-d][1,3]thiazin-7a-yl]-4-fluoro-phenyl]-5-cyano-pyridine-2-carboxamide hydrochloride] | 20.2 | 16.3 | approximately 34% | approximately 46% |  | 
5 | 15.6 | Cl.NC1=N[C@@]2(c3cc(NC(=O)c4ccc(F)cn4)ccc3F)COC[C@@]2(F)CS1 [Example 1, N-[3-[(4aR,7aS)-2-Amino-4a-fluoro-5,7-dihydro-4H-furo[3,4-d][1,3]thiazin-7a-yl]-4-fluoro-phenyl]-5-fluoro-pyridine-2-carboxamide hydrochloride] | 83.3 | 76.8 |  |  | approximately 48% | approximately 37%
